Article PMC4992173, “Divergent synthesis and identification of the cellular targets of deoxyelephantopins” (Nature Communications, 2016)

Molecular target: T1, PPARγ C176A (Homo sapiens, UniProt P37231, C176A)
T1 construct: host or cells: 293T
Experiment: Gel-based competitive IC50 determination in 293T lysates: C176A PPARγ
Type: binding
Details: C176A PPARγ expressed in 293T cells, lysate, 1 h, then 10 μM 24c-Cy3
From the text: Finally, we sought to understand the molecular basis for PPARγ binding by the synthetic analogues of deoxyelephantopin through identification of the precise covalently modified amino acid site. There is literature precedent for oxidized fatty acids containing an α,β-unsaturated ketone to form a covalent bond with a cysteine in the ligand-binding site of PPARγ[53]. More recently, synthetic ligands binding reversibly to a distinct site were identified. […] Bearing in mind that the structurally simplified, and thus less prone to MS/MS fragmentation, probe 23c binds PPARγ as efficiently as 24c (Supplementary Fig. 13), we treated the recombinant nuclear receptor with the former compound, digested the protein and analysed the resulting peptides by LC–MS/MS. […]
Supplementary figure 21: Top: Fluorescence gels corresponding to the IC50 curves presented in the main text Figure 8b. γ fluorescence signal in percentage after 19a treatment. […]
Biological materials. […] Protein concentration was determined using the Bradford assay (Bio-Rad).
Cell culture and preparation of lysates. […] Cells were lysed by sonication to form cell lysates and protein concentration was determined using the Bradford […]

T1 sequence (P37231 whole entry C176A): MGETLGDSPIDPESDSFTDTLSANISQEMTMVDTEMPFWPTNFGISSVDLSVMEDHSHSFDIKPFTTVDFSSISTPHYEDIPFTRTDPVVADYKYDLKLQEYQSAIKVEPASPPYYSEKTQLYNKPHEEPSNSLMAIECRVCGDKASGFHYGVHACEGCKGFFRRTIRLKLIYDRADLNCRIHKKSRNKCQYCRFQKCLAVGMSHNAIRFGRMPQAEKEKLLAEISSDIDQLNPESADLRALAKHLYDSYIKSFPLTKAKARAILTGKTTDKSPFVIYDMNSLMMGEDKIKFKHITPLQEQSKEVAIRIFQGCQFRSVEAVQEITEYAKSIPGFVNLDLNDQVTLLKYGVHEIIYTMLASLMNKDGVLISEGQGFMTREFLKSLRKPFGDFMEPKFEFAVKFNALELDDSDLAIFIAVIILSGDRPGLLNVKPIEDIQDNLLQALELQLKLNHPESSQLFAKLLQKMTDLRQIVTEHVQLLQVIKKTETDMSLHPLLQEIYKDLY

IC50: 33 µM
SMILES: C=C(C)C(=O)O[C@H]1CC2=C[C@H](C/C=C\[C@H]3OC(=O)C(=C)[C@H]13)OC2=O [19a]
